In ChEMBL document CHEMBL2216752, “Carnitine palmitoyltransferase (CPT) modulators: a medicinal chemistry perspective on 35 years of research” (J Med Chem, 2011):

Tests used:
Rattus norvegicus [1] = organism: Rattus norvegicus; experiment: Inhibition of CPT1A activity in 48 hrs fasted rat; type: functional
Rattus norvegicus [2] = organism: Rattus norvegicus; experiment: Reduction in ketone bodies in 48 hrs fasted rat; type: functional; set-up: scale not given: the % may be the effect or the level left
[3] = Inhibition of rat FAO
[4] = Inhibition of human FAO
Sus scrofa = organism: Sus scrofa; experiment: Increase in glucose metabolic clearance rate in pig using [U14C,3-3H]glucose; type: functional
Mus musculus [5] = experiment: Inhibition of [14C]palmitate oxidation to CO2 in mouse at 0.1 mmol/kg, ip; type: functional
Mus musculus [6] = experiment: Reduction in blood glucose level STZ-treated mouse at 1 mmol/kg, po measured 6 to 12 hrs post dose; type: functional; set-up: scale not given: the % may be the effect or the level left
[7] = Inhibition of carnitine palmitoyltransferase in fasted rat detergent lysed liver mitochondria by DTNB based spectrophotometric assay
[8] = target: T1, Carnitine O-palmitoyltransferase 1, liver isoform (Homo sapiens, UniProt P50416); experiment: Increase in CPT1 activity in human MCF7 cells assessed as increase in radiolabeled palmitoylcarnitine; type: cell-based
T1 sequence (P50416 whole entry): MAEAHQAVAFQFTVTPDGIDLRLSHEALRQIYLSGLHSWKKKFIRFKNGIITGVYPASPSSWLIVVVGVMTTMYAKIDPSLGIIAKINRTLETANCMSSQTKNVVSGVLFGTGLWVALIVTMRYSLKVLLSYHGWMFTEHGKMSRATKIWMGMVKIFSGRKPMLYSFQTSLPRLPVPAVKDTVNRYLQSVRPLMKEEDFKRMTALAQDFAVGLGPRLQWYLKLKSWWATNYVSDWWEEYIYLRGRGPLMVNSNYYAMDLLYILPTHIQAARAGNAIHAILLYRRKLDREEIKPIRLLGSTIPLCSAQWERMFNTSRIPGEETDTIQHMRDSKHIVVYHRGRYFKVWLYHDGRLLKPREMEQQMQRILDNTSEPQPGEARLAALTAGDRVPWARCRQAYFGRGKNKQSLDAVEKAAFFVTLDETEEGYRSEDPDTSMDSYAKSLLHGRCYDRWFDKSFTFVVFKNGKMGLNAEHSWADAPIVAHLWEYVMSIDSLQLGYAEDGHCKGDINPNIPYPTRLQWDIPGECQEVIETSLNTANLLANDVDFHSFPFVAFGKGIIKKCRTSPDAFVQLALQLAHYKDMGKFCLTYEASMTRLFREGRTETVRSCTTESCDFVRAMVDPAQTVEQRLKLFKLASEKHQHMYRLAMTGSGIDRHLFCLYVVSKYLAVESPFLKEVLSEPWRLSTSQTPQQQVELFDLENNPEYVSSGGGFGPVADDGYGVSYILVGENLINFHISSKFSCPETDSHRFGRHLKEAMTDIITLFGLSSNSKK

[9] = target: T2, Carnitine O-palmitoyltransferase 1, liver isoform (Homo sapiens) (UniProt P50416); experiment: Increase in CPT1 activity in human MCF7 cells assessed as increase in radiolabeled palmitoylcarnitine at 31 uM; type: cell-based
T2 sequence (whole entry): T1 sequence (P50416 whole entry)

[10] = target: T2, Carnitine O-palmitoyltransferase 1, liver isoform (Homo sapiens); experiment: Increase in CPT1 activity in human MCF7 cells assessed as increase in radiolabeled palmitoylcarnitine relative to untreated control; type: cell-based
[11] = target: T2, Carnitine O-palmitoyltransferase 1, liver isoform (Homo sapiens); experiment: Increase in CPT1A activity in hepatocytes at 60 uM; type: cell-based; settings: Hepatocyte
Hepatocyte = experiment: Stimulation of FAO in hepatocytes at 28 uM; type: cell-based
Rattus norvegicus [12] = experiment: Toxicity in rat assessed as induction of heart muscle enlargement at 200 mg/kg/day for 12 weeks administered through food admix; type: organism-based, Muscle tissue; settings: in vivo, 2016 h
Mus musculus [13] = experiment: Reduction in serum glucose level db/db mouse at 100 mg/kg/day for 30 days; type: functional; set-up: scale not given: the % may be the effect or the level left
Rattus norvegicus [14] = experiment: Reduction in KB level po dosed 24 hrs fasted rat measured 6 hrs post dose; type: functional
[15] = Inhibition of carnitine palmitoyltransferase in rat liver mitochondria assessed as conversion of [14C]palmitic acid to [14C]palmitoylcarnitine by radiometric assay
[16] = Competitive inhibition of carnitine palmitoyltransferase using palmitoyl-CoA
[17] = Inhibition of carnitine palmitoyltransferase in rat heart mitochondria assessed as conversion of [14C]palmitic acid to [14C]palmitoylcarnitine by radiometric assay

For `CCCCCCCCCCCCCC[C@]1(C(=O)OC)CO1` (racemic), the “inhibition (INH)” value (Rattus norvegicus [1]) was 90% and the Activity (Rattus norvegicus [2]) was 90%.
`CCOC(=O)[C@@]1(CCCCCCOc2ccc(Cl)cc2)CO1` [ETOMOXIR] showed an IC50 [3] of 340 nM, an IC50 [4] of 290 nM and an Activity (Sus scrofa) of 126%.
`CCCCCCCCCCCCCCCC(=O)NC(CC(=O)[O-])C[N+](C)(C)C` (racemic) showed an inhibition in vivo at 100 µmol/kg (Mus musculus [5]) of 46%, an Activity (Mus musculus [6]) of 45% and an IC50 [7] of 50 nM.
`C=CCC1(CC=C)C(=O)S[C@](C)(CCCCCCCC)C1=O` gave an EC50 [8] of 3000 nM, an Activity [9] of 177% and an Activity [10] of 140%. The Activity [11] was 150% and the Activity (Hepatocyte) was 150%.
In the case of `O=C([O-])[C@@]1(CCCCCc2ccc(Cl)cc2)CO1.[Na+]` [CLOMIXIR], the Activity (Rattus norvegicus [12]) is reported as 15%.
In the case of `CCCCCCCCCCCCS(=O)(=O)N[C@H](CC(=O)[O-])C[N+](C)(C)C`, the Activity (Mus musculus [13]) is reported as 28%, the ED50 (Rattus norvegicus [14]) is reported as 20 mg/kg and the IC50 [15] is reported as 700 nM. For the same molecule, the Ki [16] was 250 nM and the IC50 [17] was 3400 nM.
